Measured values taken from the NIST ThermoML archive (doi:10.1016/j.jct.2009.08.002).
Numbers after ± are expanded uncertainties.

How the values were obtained:
[1] = molar heat capacity at constant pressure; details: 298.15 K; 101.33 kPa; Liquid; Large sample (1 g) DSC
[2] = molar heat capacity at constant pressure; xn = mol fraction of the nth substance listed; details: Liquid, Large sample (1 g) DSC, x2 = 0

Row | SMILES | molar heat capacity at constant pressure [1] | molar heat capacity at constant pressure ([2]; 283.15 K) | molar heat capacity at constant pressure ([2]; 288.15 K) | molar heat capacity at constant pressure ([2]; 293.15 K) | molar heat capacity at constant pressure ([2]; 298.15 K) | molar heat capacity at constant pressure ([2]; 303.15 K) | molar heat capacity at constant pressure ([2]; 308.15 K) | molar heat capacity at constant pressure ([2]; 313.15 K) | molar heat capacity at constant pressure ([2]; 318.15 K) | molar heat capacity at constant pressure ([2]; 323.15 K)
1 | CC#N [acetonitrile] | 90.93 ± 1.4 J/K/mol | – | – | – | – | – | – | – | – | –
2 | CC#N [acetonitrile] + CCCCCCCC[n+]1ccn(C)c1.F[B-](F)(F)F | – | 90.03 ± 1.4 J/K/mol | 90.3 ± 1.4 J/K/mol | 90.6 ± 1.4 J/K/mol | 90.93 ± 1.4 J/K/mol | 91.28 ± 1.4 J/K/mol | 91.66 ± 1.4 J/K/mol | 92.07 ± 1.4 J/K/mol | 92.5 ± 1.4 J/K/mol | 92.96 ± 1.4 J/K/mol
3 | CC#N [acetonitrile] + CCCCCCn1cc[n+](C)c1.F[B-](F)(F)F | – | 90.03 ± 1.4 J/K/mol | 90.3 ± 1.4 J/K/mol | 90.6 ± 1.4 J/K/mol | 90.93 ± 1.4 J/K/mol | 91.28 ± 1.4 J/K/mol | 91.66 ± 1.4 J/K/mol | 92.07 ± 1.4 J/K/mol | 92.5 ± 1.4 J/K/mol | 92.96 ± 1.4 J/K/mol
4 | CCCCCCCC[n+]1ccn(C)c1.F[B-](F)(F)F [1-methyl-3-octylimidazolium tetrafluoroborate] | 498.3 ± 11 J/K/mol | – | – | – | – | – | – | – | – | –
5 | CCCCCCn1cc[n+](C)c1.F[B-](F)(F)F [1-hexyl-3-methylimidazolium tetrafluoroborate] | 432 ± 8 J/K/mol | – | – | – | – | – | – | – | – | –
